Here are results for 4 compounds from patent publication US7888359B2, “Cyclohexyl or piperidinyl carboxamide antibiotic derivatives” (Actelion Pharmaceutical Ltd., priority 2006, dated 2011).

By MIC is commonly meant the least concentration at which growth counts as inhibited. Lower therefore signals a more susceptible organism.

Molecules are shown by their SMILES. Converted amounts (≈) assume the structure as drawn.

Common to all, as to assay type: cell-based
For one test, the system named is S. aureus A798. As to the kind of experiment: MIC by microdilution (NCCLS) against S. aureus A798. Conditions: pH 7.2-7.3; for MIC: Staphylococcus aureus, A798, cation-adjusted Mueller-Hinton Broth. On the procedure: (§1) These assays have been performed following the description given in “Methods for dilution Antimicrobial Susceptibility Tests for Bacteria that Grow Aerobically, 4th ed.; Approved standard: NCCLS Document M7-A4; National Committee for Clinical Laboratory Standards Villanova, Pa., USA, 1997”. Minimal inhibitory concentrations (MICs; mg/L) were determined in cation-adjusted Mueller-Hinton Broth (BBL) by a microdilution method following NCCLS guidelines (National Committee for Clinical Laboratory Standards. Methods for Dilution Antimicrobial Susceptibility). The pH of the test medium was 7.2-7.3.
In general terms: Broth dilution looks for growth in wells or tubes with falling amounts of substance.

The test system of a further test is S. Pneumoniae 49619. As to the kind of experiment: MIC by microdilution (NCCLS) against S. Pneumoniae 49619. To be noted: cation-adjusted Mueller-Hinton Broth, pH 7.2-7.3; for MIC: Streptococcus pneumoniae. The procedure: as §1
The next test has as its system M. catarrhalis A894. The experiment in a line: MIC by microdilution (NCCLS) against M. catarrhalis A894. To be noted: pH 7.2-7.3; for MIC: Moraxella catarrhalis, A894, cation-adjusted Mueller-Hinton Broth. The procedure: as §1
Setting [1] is: cation-adjusted Mueller-Hinton Broth.

For the compound `COc1ccc2nccc(C(O)CN3CCC(C(=O)Nc4ccc5c(c4)NC(=O)CS5)CC3)c2c1` (racemic) [Example 12, (2RS)-1-[2-hydroxy-2-(6-methoxy-quinolin-4-yl)-ethyl]-piperidine-4-carboxylic acid (3-oxo-3,4-dihydro-2H-benzo[1,4]thiazin-6-yl)-amide], the values for the MIC against S. aureus A798, against S. Pneumoniae 49619 and against M. catarrhalis A894 were 1 µg/mL (≈ 2.03 µM), 2 µg/mL (≈ 4.06 µM) and 0.25 µg/mL (≈ 0.508 µM), respectively.

For the compound `COc1ccc2nccc(OC[C@H]3CC[C@H](C(=O)Nc4ccc5c(c4)OCCO5)CC3)c2c1` [Example 1, trans-4-(6-methoxy-quinolin-4-yloxymethyl)-cyclohexanecarboxylic acid (2,3-dihydro-benzo[1,4]dioxin-6-yl)-amide], the minimum inhibitory concentration (MIC) in the test with S. aureus A798 was determined as 0.06 µg/mL (≈ 0.134 µM); against S. Pneumoniae 49619, 0.06 µg/mL (≈ 0.134 µM); with M. catarrhalis A894, 0.5 µg/mL (≈ 1.11 µM).

With `COc1cnc2cccc(CCC3(O)CCC(C(=O)N/C=C/c4cc(F)ccc4F)CC3)c2c1` (stereo not drawn) [Example 26, trans-4-hydroxy-4-[2-(3-methoxy-quinolin-5-yl)-ethyl]-cyclohexanecarboxylic acid [2-(2,5-difluoro-phenyl)-vinyl]-amide], the “MIC S. aureus A798” value against S. aureus A798 (setting [1]) is given as less than 0.03 mg/L. Further, the “MIC S. Pneumoniae 49619” value in the test with S. Pneumoniae 49619 is given as 0.125 mg/L (≈ 0.268 µM). The “MIC M. catarrhalis A894” value against M. catarrhalis A894 (setting [1]) was less than 0.03 mg/L.

As for `COc1ccc2nccc(CCC3(O)CCC(C(=O)N(C)c4ccc5c(c4)OCCO5)CC3)c2n1` (stereo not drawn) [Example 39, 4-hydroxy-4-[2-(6-methoxy-[1,5]naphthyridin-4-yl)-ethyl]-cyclohexanecarboxylic acid (2,3-dihydro-benzo[1,4]dioxin-6-yl)-methyl-amide], the minimum inhibitory concentration (MIC) against S. aureus A798 was 1 µg/mL (≈ 2.09 µM); against S. Pneumoniae 49619, 8 µg/mL (≈ 16.8 µM); against M. catarrhalis A894, 8 µg/mL (≈ 16.8 µM).
